# Source: publication PMC12524617, “Recombinant Production and Characterization of a Novel α-L-Fucosidase from Bifidobacterium castoris” (International Journal of Molecular Sciences, 2025)
# Target: T1, commercial T. maritima α-L-fucosidase (Thermotoga maritima, UniProt Q9WYE2)
# T1 construct: gene TM_0306; commercial enzyme from Megazyme
# T1 sequence (Q9WYE2 1-449): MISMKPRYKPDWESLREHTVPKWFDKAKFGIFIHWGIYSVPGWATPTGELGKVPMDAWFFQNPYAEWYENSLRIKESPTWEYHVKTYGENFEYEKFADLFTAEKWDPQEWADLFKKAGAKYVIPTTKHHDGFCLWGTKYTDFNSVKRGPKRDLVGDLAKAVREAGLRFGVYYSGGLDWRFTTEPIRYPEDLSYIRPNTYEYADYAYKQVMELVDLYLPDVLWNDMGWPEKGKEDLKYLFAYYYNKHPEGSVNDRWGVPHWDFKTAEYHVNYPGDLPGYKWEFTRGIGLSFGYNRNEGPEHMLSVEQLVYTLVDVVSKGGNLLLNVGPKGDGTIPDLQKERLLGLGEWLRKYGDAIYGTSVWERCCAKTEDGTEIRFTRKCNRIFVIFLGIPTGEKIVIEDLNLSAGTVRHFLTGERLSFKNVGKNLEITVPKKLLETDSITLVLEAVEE
# Assay: p-nitrophenolate release, absorbance at […] nm
# Assay type: biochemical
# Settings: positive control enzyme, 1 μg, same conditions, pH 3.0-8.0, 24-42 °C; activity only in figure
smiles,measurement,value
"C[C@@H]1O[C@@H](Oc2ccc([N+](=O)[O-])cc2)[C@@H](O)[C@H](O)[C@@H]1O [pNP-Fuc, 4-Nitrophenyl-α-L-fucopyranoside]","p-nitrophenolate release, absorbance at 405 nm",-derived α-L-fucosidase was used as a positive control under the same conditions
